# In patent US20170042955A1, “Novel Anti-Fungal Composition” (priority 2014, published 2017):
# What was measured:
# C. albicans = test: Antifungal activity by modified Kerby-Bauer disc method; format: cell-based, Candida albicans
# Protocol: • Susceptibility disks (5 mm in diameter) were impregnated with 0.5 mg of desired compound(s)/extract dissolved in DMSO, and placed on Sabouraud dextrose agar plates separately inoculated with the C. albicans and C. glabrata. […] Disc containing only DMSO was used as a negative control. • Anticandidal activity against Candida species: • Dose dependent anti-candidal activity was observed up on treatment using Lawsoniainermisextract against tested C. albicans and C. glabrata (Table 1).
# [1] = system: proteinase of C. albicans NCIM 3074; test: Protease inhibitory activity, native gel electrophoresis (casein zymogram); format: cell-based, Candida albicans; settings: 100 μg mL-1 Lawsone; 24-48 h at 37° C.; FIG. 6
# Protocol: (§1) C. albicans NCIM 3074 culture was grown in Sabouraud broth at 37° C. for 12 h. The culture was centrifuged at 7000 rpm for 5 mm to pellet the cells. The cell pellet was washed twice with normal saline and centrifuged to collect the pellets. 100 μL of Candida albicans cell suspension was added to proteinase induction medium containing 1% glucose, 3% yeast carbon base and 1% BSA (Bovine Serum Albumin). […] This was added to respective test tubes immediately after the inoculation of culture. The mixture was incubated for 24-48 h at 37° C. in a shaker at 150 rpm. Culture broth was centrifuged at 7000 rpm for 15 min to remove cells. Cells were lysed and cell lysis was used for zymographic studies after protein estimation. Zymogram was performed with 1% casein incorporated in the acrylamide gel to detect the proteinase inhibition activity. The proteinase inhibitory activity was indicated by no cleavage of casein (no band formation) and it can be compared to complete cleavage of casein by proteinases (white band formation) in control groups. […] Subsequently, 1 ml of 60% perchloric acid was added and the final volume was made to 9.1 ml using distilled water to this 0.5 ml of molybdate II reagent and 0.4 ml ANSA reagent mixture was added. The tubes were shaken well and heated in a boiling water bath for 8 mm exactly. The blue color developed was read using spectrophotometer at 680 nm.
# [2] = system: Phospholipase of C. albicans; test: Phospholipase inhibitory activity, spectrophotometric analysis; format: cell-based, Candida albicans; settings: Lawsone 100 μg/ml
# Protocol: as §1
# Candida sp. = settings: literature study (13); cited from earlier work
smiles,measurement,setting,value
O=C1C=C(O)C(=O)c2ccccc21 [Lawsone],Inhibition of candidal growth,"C. albicans; C. albicans, all three concentrations 50, 100 and 200 μg/ml, FIG. 1",Complete inhibition of candidal growth
same,zone of inhibition at 50 µg/disc,C. albicans; Candida albicans,14 mm
same,zone of inhibition at 100 µg/disc,C. albicans; Candida albicans,16 mm
same,zone of inhibition at 200 µg/disc,C. albicans; Candida albicans,17 mm
same,"Zymogram result, casein cleavage",[1],intact Casein (no band/less intense band formation)
same,% Inhibition of Phospholipase Enzyme Activity,[2]; compared to Control,77.78%
same,Phospholipase Enzyme Activity (O.D),[2]; read at 680 nm,0.02 O.D
same,Activity on Candida sp.,Candida sp.,there isn't appreciable activity
